The results in this text go back to PubChem BioAssay AID328 (DTP/NCI, 2004).

This test deals with BDF1 mice, P388 leukemia ip, median survival T/C. Put plainly: NCI In Vivo Anticancer Drug Screen. Data for tumor model P388 Leukemia (intraperitoneal) in B6D2F1 (BDF1) mice. The conditions noted are these: endpoint: median survival time, higher = longer survival. A digest of the protocol:
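Antitumour effect was judged in vivo: survival in drug-treated mice, normalised to that of vehicle-dosed controls, gives the reported T/C.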

[1] abbreviates: dose: 100.0 mg/kg/injection, schedule: Q01DX009 (ip), vehicle: Klucel (hydroxypropylcellulose) (HPC).
[2] abbreviates: dose: 100.0 mg/kg/injection, schedule: Q04DX003 (ip), vehicle: Klucel (hydroxypropylcellulose) (HPC).
The mark [3] stands for this setting: dose: 200.0 mg/kg/injection, schedule: Q01DX009 (ip), vehicle: Klucel (hydroxypropylcellulose) (HPC).
Where [4] appears, read: dose: 200.0 mg/kg/injection, schedule: Q04DX003 (ip), vehicle: Klucel (hydroxypropylcellulose) (HPC).
The mark [5] stands for this setting: dose: 400.0 mg/kg/injection, schedule: Q04DX003 (ip), vehicle: Klucel (hydroxypropylcellulose) (HPC).
Where [6] appears, read: dose: 10.0 mg/kg/injection, schedule: Q01DX009 (ip), vehicle: Klucel (hydroxypropylcellulose) (HPC).
Where [7] appears, read: dose: 40.0 mg/kg/injection, schedule: Q01DX009 (ip), vehicle: Klucel (hydroxypropylcellulose) (HPC).

SMILES strings stand for the structures. Several values for one entry are separate records, joined by “and”; a condition that tells them apart may be missing. Equal values may be shown once. Toxic doses and inconclusive results are not listed.

As to `C[n+]1c(/C=C\C=C\N2CCCCC2)sc2ccccc21`, the T/C is 114 % of control (dose: 0.16 mg/kg/injection, schedule: Q01DX009 (ip), vehicle: Klucel (hydroxypropylcellulose) (HPC)); 108 % of control (dose: 0.31 mg/kg/injection, schedule: Q01DX009 (ip), vehicle: Klucel (hydroxypropylcellulose) (HPC)); 119 % of control (dose: 0.63 mg/kg/injection, schedule: Q01DX009 (ip), vehicle: Klucel (hydroxypropylcellulose) (HPC)).

Turning to `COc1cc2ccccc2c(-c2c(O)c(OC)cc3ccccc23)c1O`, the T/C is, setting by setting: (dose: 50.0 mg/kg/injection, schedule: Q01DX009 (ip), vehicle: saline with Tween-80) 91 % of control; (dose: 100.0 mg/kg/injection, schedule: Q01DX009 (ip), vehicle: saline with Tween-80) 86 % of control; (dose: 200.0 mg/kg/injection, schedule: Q01DX009 (ip), vehicle: saline with Tween-80) 88 % of control.

Turning to `Cc1cc(N(CCCl)CCCl)ccc1C=Nc1cccnc1`, the T/C (dose: 50.0 mg/kg/injection, schedule: Q01DX009 (ip), vehicle: Klucel (hydroxypropylcellulose) (HPC)) is 100 % of control and 113 % of control; the T/C (dose: 50.0 mg/kg/injection, schedule: Q04DX003 (ip), vehicle: Klucel (hydroxypropylcellulose) (HPC)) was 100 % of control; the T/C under setting [1] was 152 % of control; the T/C under setting [2] was 95 % of control; the T/C under setting [3] was 150 % of control and 156 % of control; the T/C under setting [4] was 120 % of control. The T/C was 169 % of control and 190 % of control (dose: 400.0 mg/kg/injection, schedule: Q01DX009 (ip), vehicle: Klucel (hydroxypropylcellulose) (HPC)); 120 % of control under setting [5].

`O=C1C=CC(=O)N1`: the T/C by setting is: (dose: 0.26 mg/kg/injection, schedule: Q01DX009 (ip), vehicle: saline) 105 % of control; (dose: 0.4 mg/kg/injection, schedule: Q01DX009 (ip), vehicle: saline) 90 % of control; (dose: 0.61 mg/kg/injection, schedule: Q01DX009 (ip), vehicle: saline) 100 % of control; (dose: 0.93 mg/kg/injection, schedule: Q01DX009 (ip), vehicle: saline) 109 % of control; (dose: 1.39 mg/kg/injection, schedule: Q01DX009 (ip), vehicle: saline) 118 % of control; (dose: 3.6 mg/kg/injection, schedule: Q04DX003 (ip), vehicle: saline) 95 % of control. For the same molecule, the T/C (dose: 8.5 mg/kg/injection, schedule: Q04DX003 (ip), vehicle: saline) is 104 % of control.

With `COc1cc2c(c3c1c(=O)c1cc(O)ccc1n3C)C=CC(C)(C)O2`, the T/C reads like this: (dose: 5.0 mg/kg/injection, schedule: Q01DX009 (ip), vehicle: Klucel (hydroxypropylcellulose) (HPC)) 114 % of control; under setting [6], 113 % of control; (dose: 20.0 mg/kg/injection, schedule: Q01DX009 (ip), vehicle: Klucel (hydroxypropylcellulose) (HPC)) 112 % of control; under setting [7], 106 % of control.

On to `COc1ccc(-c2oc3cc(O)cc(O)c3c(=O)c2OC)cc1O`, for which the T/C runs as follows: (dose: 10.0 mg/kg/injection, schedule: Q01DX010 (ip), vehicle: saline) 100 % of control; (dose: 20.0 mg/kg/injection, schedule: Q01DX010 (ip), vehicle: saline) 100 % of control; (dose: 40.0 mg/kg/injection, schedule: Q01DX010 (ip), vehicle: saline) 109 % of control.

Turning to `CC1CC(C)(C)N=C(C(C)CC(C)(C)C)O1` (stereo unspecified), the T/C by setting is: (dose: 50.0 mg/kg/injection, schedule: Q04DX003 (ip), vehicle: saline sonified) 90 % of control; (dose: 100.0 mg/kg/injection, schedule: Q04DX003 (ip), vehicle: saline sonified) 100 % of control; (dose: 200.0 mg/kg/injection, schedule: Q04DX003 (ip), vehicle: saline sonified) 100 % of control.

In the case of `O=C1C2C(c3cc4ccccc4n31)N2c1ccccc1` (stereo unspecified), the T/C was 110 % of control (dose: 0.03 mg/kg/injection, schedule: Q01DX010 (ip), vehicle: water); 94 % of control (dose: 0.06 mg/kg/injection, schedule: Q01DX010 (ip), vehicle: water); 94 % of control (dose: 0.13 mg/kg/injection, schedule: Q01DX010 (ip), vehicle: water); 94 % of control (dose: 0.25 mg/kg/injection, schedule: Q01DX010 (ip), vehicle: water); 105 % of control (dose: 0.5 mg/kg/injection, schedule: Q01DX010 (ip), vehicle: water); 105 % of control (dose: 1.0 mg/kg/injection, schedule: Q01DX010 (ip), vehicle: water). Also, the T/C (dose: 2.0 mg/kg/injection, schedule: Q01DX010 (ip), vehicle: water) is 105 % of control.

`NC(=O)c1ccc(C(F)(F)F)cc1O`: the T/C reads like this: under setting [2], 90 % of control; under setting [4], 90 % of control.

For the molecule `Nc1ncnc2c1nnn2C1OC(CO)C(O)C1O` (stereo unspecified), the T/C is 150 % of control under setting [6]; 160 % of control (dose: 15.0 mg/kg/injection, schedule: Q01DX009 (ip), vehicle: Klucel (hydroxypropylcellulose) (HPC)); 161 % of control (dose: 18.0 mg/kg/injection, schedule: Q01DX009 (ip), vehicle: Klucel (hydroxypropylcellulose) (HPC)); 96 % of control (dose: 24.0 mg/kg/injection, schedule: Q01DX009 (ip), vehicle: Klucel (hydroxypropylcellulose) (HPC)); 170 % of control (dose: 27.0 mg/kg/injection, schedule: Q01DX009 (ip), vehicle: Klucel (hydroxypropylcellulose) (HPC)); 170 % of control (dose: 28.0 mg/kg/injection, schedule: Q01DX009 (ip), vehicle: Klucel (hydroxypropylcellulose) (HPC)). Besides, the T/C is 99 % of control (dose: 35.0 mg/kg/injection, schedule: Q01DX009 (ip), vehicle: Klucel (hydroxypropylcellulose) (HPC)); 104 % of control under setting [7]; 170 % of control (dose: 42.0 mg/kg/injection, schedule: Q01DX009 (ip), vehicle: Klucel (hydroxypropylcellulose) (HPC)); 107 % of control (dose: 53.0 mg/kg/injection, schedule: Q01DX009 (ip), vehicle: Klucel (hydroxypropylcellulose) (HPC)); 91 % of control (dose: 60.0 mg/kg/injection, schedule: Q01DX009 (ip), vehicle: Klucel (hydroxypropylcellulose) (HPC)); 115 % of control (dose: 63.0 mg/kg/injection, schedule: Q01DX009 (ip), vehicle: Klucel (hydroxypropylcellulose) (HPC)). For the setting “dose: 79.0 mg/kg/injection, schedule: Q01DX009 (ip), vehicle: Klucel (hydroxypropylcellulose) (HPC)”, the T/C is 102 % of control.

As for `Cc1ncc([N+](=O)[O-])n1CCSSCCn1c([N+](=O)[O-])cnc1C`, the T/C by setting is: (dose: 100.0 mg/kg/injection, schedule: Q04DX003 (ip), vehicle: saline with Tween-80) 118 % of control; (dose: 200.0 mg/kg/injection, schedule: Q04DX003 (ip), vehicle: saline with Tween-80) 118 % of control; (dose: 400.0 mg/kg/injection, schedule: Q04DX003 (ip), vehicle: saline with Tween-80) 115 % of control.

Take `C/C(=N/N)c1ccc(Br)cc1`: the T/C was 103 % of control (dose: 3.0 mg/kg/injection, schedule: Q01DX009 (ip), vehicle: saline with Tween-80); 92 % of control (dose: 6.0 mg/kg/injection, schedule: Q01DX009 (ip), vehicle: saline with Tween-80); 118 % of control (dose: 22.0 mg/kg/injection, schedule: Q04DX003 (ip), vehicle: saline with Tween-80); 118 % of control and 122 % of control (dose: 34.0 mg/kg/injection, schedule: Q04DX003 (ip), vehicle: saline with Tween-80); 122 % of control (dose: 50.0 mg/kg/injection, schedule: Q04DX003 (ip), vehicle: saline with Tween-80).

For `CCCCCCCCCCCC(=O)N(C)C`, the T/C under setting [1] was 105 % of control; the T/C under setting [2] is 104 % of control; the T/C under setting [3] was 105 % of control; the T/C under setting [4] is 100 % of control; the T/C under setting [5] was 100 % of control.
